Experiments:
human neutrophils = experiment: Human neutrophil migration assay; assay type: cell-based; conditions: Homo sapiens, Neutrophil; embelin at EC80 as chemotactic agent; 1 h at 37° C.; read-out: Human neutrophil migration IC50
Protocol: The activity of GPR84 agonists and antagonists can therefore be assayed in a human neutrophil migration assay. The human neutrophil migration assay makes use of freshly isolated human neutrophils from buffy coats that are subsequently used in a functional chemotaxis assay setup. […] After 1 h of incubation at 37° C. and 5% CO2, the number of migrated neutrophils in the lower compartment can be quantified by measuring the ATP content using ATPlite™ Luminescence Assay System. A human buffy coat suspension is diluted with an equal volume of ice cold DPBS. 20 mL of the diluted buffy coat suspension is gently mixed with 4 mL of ACD buffer (140 mM citric acid, 200 mM sodium citrate and 220 mM dextrose). Then, 12 mL of a 6% dextran/0.9% NaCl solution (15 g dextran T2000 and 2.25 g NaCl dissolved in 250 mL H2O) is added to the mixture and the samples are inverted gently up to 20 times. The total volume is transferred to a new recipient and incubated at room temperature to allow sedimentation of red blood cells. The yellowish upper fraction is then transferred to a clean centrifugation tube and centrifuged for 12 min at 1300 rpm and 4° C. After centrifugation, the supernatant is discarded and the remaining cell pellet is rapidly resuspended in 12 mL of ice-cold H2O to perform a red blood cell lysis by osmotic burst. After 20 seconds, 4 mL of ice-cold 0.6 M KCl is added to restore salt concentration. Samples are mixed carefully and centrifuged for 6 min at 1300 rpm and 4° C. The supernatant is discarded and the red blood cell lysis procedure is repeated one more time. […] A neutrophil cell suspension of 8.9×10^6 cells per mL is prepared in chemotaxis buffer and 180 μL per well is plated in a 96-well V-bottom plate. 20 μL of test compound solution in chemotaxis buffer is added to the 180 μL cell suspension. The mixture is incubated at room temperature for 30 min with intermediate gentle resuspension of the cells after 15 min. […] After 1 h at 37° C., 5% CO2 in a humidified incubator, the upper plate of the Transwell® system is gently removed. […] After incubation, 270 μL of cell lysate is then transferred onto a white 96-well plate for quantification by a luminescence plate reader. The relative luminescent signal measured is considered linearly related to the number of cells having migrated from the upper compartment into the receiver well.

[1] = Chemical stability in aqueous solutions with different pH; assay type: physicochemical; conditions: 2 μM; for % rem. (2 h) pH 1.2 / % rem. (24 h) pH 1.2: pH 1.2 hydrochloric acid buffer; for % rem. (2 h) pH 1.2 / % rem. (2 h) pH 5.0 / % rem. (2 h) pH 7.4 / % rem. (2 h) pH 9.0: 2 h incubation at 37° C.; for % rem. (24 h) pH 1.2 / % rem. (24 h) pH 5.0 / % rem. (24 h) pH 7.4 / % rem. (24 h) pH 9.0: 24 h incubation at 37° C.; for % rem. (2 h) pH 5.0 / % rem. (24 h) pH 5.0: pH 5.0 acetate buffer; for % rem. (2 h) pH 7.4 / % rem. (24 h) pH 7.4: pH 7.4 phosphate buffer; for % rem. (2 h) pH 9.0 / % rem. (24 h) pH 9.0: pH 9.0 Tris buffer
Protocol: This in vitro model is aimed at assessing the stability of a test compound in aqueous solutions with different pH. The decrease in parent compound is assessed by measuring the percentage parent remaining after 2 and 24 h incubation at 37° C.
A 2 mM DMSO stock is made for each test compound starting from dry matter. Then a 80 μM working solution of compound in DMSO is made by diluting the 2 mM DMSO.
The 80 μM working solution is diluted to a final concentration of 2 μM-2.5% DMSO in buffer with the desired pH (pH 1.2: hydrochloric acid buffer, pH 5.0: acetate buffer, pH 7.4: phosphate buffer, pH 9.0: Tris buffer) in 96-well plates with glass inserts (Cat no. 548-0201/548-0202, VWR-Thermo Scientific). Two replicates are run for each buffer solution and each time point.
One set of vials is incubated for 24 h at 200 rpm and another for 2 h at 200 rpm. To stop the reaction after the respective incubation times, 4 volumes of acetonitrile containing the internal standard (stop solution) are added to the reaction solution and the vials are vortexed briefly.
For the 0 h incubation, the stop solution with internal standard is first added to the buffer solution in glass vials and then the working solution of test compound (final concentration: 2 μM-2.5% DMSO) is added.
Propranolol is used as internal standard, but if the mass difference is too low with the test compound(s), another product is selected as internal standard. The concentration of the internal standard is chosen to obtain a peak area half of the average peak area of the test compounds and control at time point 0.
Analysis is performed on an LCMS-MS system (API2000 or API4000). The average of the peak areas of the two replicates from the parent compound at time 0 divided by the peak area of the internal standard is considered to be 100% remaining. The percentage remaining after 2 and 24 h of incubation is calculated for all other peaks and the percentage remaining after 2 and 24 h is reported.

GPR84 = target: T1, GPR84 (Homo sapiens, UniProt Q9NQS5); experiment: GPR84 [35S]GTPγS binding assay; assay type: biochemical; conditions: 3,3′-diindolylmethane at EC80; membranes from stable cell line over expressing GPR84
T1 construct: expressed in transfected cells
Method in brief: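 Antagonist-mode [35S]GTPγS binding on membranes from a GPR84-overexpressing stable line (GDP-preincubated), stimulated with 3,3′-diindolylmethane at EC80. Buffer 20 mM Tris pH 7.5, 5 mM MgCl2, 250 mM NaCl, saponin; 0.1 nM [35S]GTPγS, 90 min at room temperature, SPA bead read-out.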

T1 sequence (Q9NQS5 whole entry): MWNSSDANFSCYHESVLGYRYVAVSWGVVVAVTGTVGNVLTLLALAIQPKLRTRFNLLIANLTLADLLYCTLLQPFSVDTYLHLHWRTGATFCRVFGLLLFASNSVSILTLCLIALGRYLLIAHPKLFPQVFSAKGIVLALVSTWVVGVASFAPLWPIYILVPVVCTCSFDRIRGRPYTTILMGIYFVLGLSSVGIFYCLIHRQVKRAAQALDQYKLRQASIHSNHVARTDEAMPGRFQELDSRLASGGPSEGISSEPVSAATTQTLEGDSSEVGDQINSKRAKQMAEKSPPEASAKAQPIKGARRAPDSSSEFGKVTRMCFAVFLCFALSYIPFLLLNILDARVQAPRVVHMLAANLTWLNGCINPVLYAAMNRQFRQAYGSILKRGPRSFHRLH

Row | IC50 (human neutrophils) [nM] | % rem. (2 h) pH 1.2 [1] | % rem. (24 h) pH 1.2 [1] | % rem. (2 h) pH 5.0 [1] | % rem. (24 h) pH 5.0 [1] | % rem. (2 h) pH 7.4 [1] | % rem. (24 h) pH 7.4 [1] | % rem. (2 h) pH 9.0 [1] | % rem. (24 h) pH 9.0 [1] | IC50 (GPR84) [nM] | SMILES
1 | 100 to 500 | *** (>80%) | *** (>80%) | *** (>80%) | *** (>80%) | *** (>80%) | *** (>80%) | *** (>80%) | *** (>80%) | 100 to 500 | COc1cc2c(cc1OC)-c1c(C)c(=O)cc(OC[C@@H]3COCCO3)n1CC2 [Compound 1, 4-[[(2S)-1,4-dioxan-2-yl]methoxy]-9,10-dimethoxy-1-methyl-6,7-dihydrobenzo[a]quinolizin-2-one]
2 | 0.01 to 100 | *** (>80%) | *** (>80%) | *** (>80%) | *** (>80%) | *** (>80%) | *** (>80%) | *** (>80%) | *** (>80%) | 100 to 500 | Cc1c2n(c(NCC3CCCO3)cc1=O)CCc1cc(OCC(F)(F)F)ccc1-2 (stereo not drawn) [Compound 8, 1-methyl-4-(tetrahydrofuran-2-ylmethylamino)-9-(2,2,2-trifluoroethoxy)-6,7-dihydrobenzo[a]quinolizin-2-one]
3 | 0.01 to 100 | *** (>80%) | *** (>80%) | *** (>80%) | *** (>80%) | *** (>80%) | *** (>80%) | *** (>80%) | *** (>80%) | 0.01 to 100 | COc1ccc2c(c1OC)CCn1c(NCC3CCCO3)cc(=O)c(C)c1-2 (stereo not drawn) [Compound 10, 8,9-dimethoxy-1-methyl-4-(tetrahydrofuran-2-ylmethylamino)-6,7-dihydrobenzo[a]quinolizin-2-one]
4 | 0.01 to 100 | – | – | – | – | – | – | – | – | 0.01 to 100 | COC(=O)N1CC=C(c2ccc3c(c2)CCn2c(OC[C@@H]4COCCO4)cc(=O)c(C)c2-3)CC1 [Compound 76, methyl 4-[4-[[(2S)-1,4-dioxan-2-yl]methoxy]-1-methyl-2-oxo-6,7-dihydrobenzo[a]quinolizin-9-yl]-3,6-dihydro-2H-pyridine-1-carboxylate]
5 | 0.01 to 100 | – | – | – | – | – | – | – | – | 0.01 to 100 | CCOC(=O)N1CC=C(c2ccc3c(c2)CCn2c(OC[C@@H]4COCCO4)cc(=O)c(C)c2-3)CC1 [Compound 77, ethyl 4-[4-[[(2S)-1,4-dioxan-2-yl]methoxy]-1-methyl-2-oxo-6,7-dihydrobenzo[a]quinolizin-9-yl]-3,6-dihydro-2H-pyridine-1-carboxylate]
6 | 0.01 to 100 | – | – | – | – | – | – | – | – | 0.01 to 100 | Cc1c2n(c(OC[C@@H]3COCCO3)cc1=O)CCc1cc(C3=CCN(C(=O)OC(C)C)CC3)ccc1-2 [Compound 78, isopropyl 4-[4-[[(2S)-1,4-dioxan-2-yl]methoxy]-1-methyl-2-oxo-6,7-dihydrobenzo[a]quinolizin-9-yl]-3,6-dihydro-2H-pyridine-1-carboxylate]
7 | 0.01 to 100 | – | – | – | – | – | – | – | – | 0.01 to 100 | Cc1c2n(c(OC[C@@H]3COCCO3)cc1=O)CCc1cc(C3=CCN(C(=O)OCC(F)(F)F)CC3)ccc1-2 [Compound 79, 2,2,2-trifluoroethyl 4-[4-[[(2S)-1,4-dioxan-2-yl]methoxy]-1-methyl-2-oxo-6,7-dihydrobenzo[a]quinolizin-9-yl]-3,6-dihydro-2H-pyridine-1-carboxylate]
8 | 0.01 to 100 | – | – | – | – | – | – | – | – | 0.01 to 100 | COC(=O)N1CCC(c2ccc3c(c2)CCn2c(OC[C@@H]4COCCO4)cc(=O)c(C)c2-3)CC1 [Compound 80, methyl 4-[4-[[(2S)-1,4-dioxan-2-yl]methoxy]-1-methyl-2-oxo-6,7-dihydrobenzo[a]quinolizin-9-yl]piperidine-1-carboxylate]
9 | 0.01 to 100 | – | – | – | – | – | – | – | – | 0.01 to 100 | CCOC(=O)N1CCC(c2ccc3c(c2)CCn2c(OC[C@@H]4COCCO4)cc(=O)c(C)c2-3)CC1 [Compound 81, ethyl 4-[4-[[(2S)-1,4-dioxan-2-yl]methoxy]-1-methyl-2-oxo-6,7-dihydrobenzo[a]quinolizin-9-yl]piperidine-1-carboxylate]
10 | 0.01 to 100 | – | – | – | – | – | – | – | – | 0.01 to 100 | Cc1c2n(c(OC[C@@H]3COCCO3)cc1=O)CCc1cc(C3CCN(C(=O)OC(C)C)CC3)ccc1-2 [Compound 82, isopropyl 4-[4-[[(2S)-1,4-dioxan-2-yl]methoxy]-1-methyl-2-oxo-6,7-dihydrobenzo[a]quinolizin-9-yl]piperidine-1-carboxylate]
11 | 0.01 to 100 | – | – | – | – | – | – | – | – | 0.01 to 100 | Cc1c2n(c(OC[C@@H]3COCCO3)cc1=O)CCc1cc(C3CCN(C(=O)OCC(F)(F)F)CC3)ccc1-2 [Compound 83, 2,2,2-trifluoroethyl 4-[4-[[(2S)-1,4-dioxan-2-yl]methoxy]-1-methyl-2-oxo-6,7-dihydrobenzo[a]quinolizin-9-yl]piperidine-1-carboxylate]
12 | 0.01 to 100 | – | – | – | – | – | – | – | – | 0.01 to 100 | Cc1c2n(c(OC[C@@H]3COCCO3)cc1=O)CCc1cc(N3CC(F)(F)C3)ccc1-2 [Compound 86, 9-(3,3-difluoroazetidin-1-yl)-4-[[(2S)-1,4-dioxan-2-yl]methoxy]-1-methyl-6,7-dihydrobenzo[a]quinolizin-2-one]
13 | 100 to 500 | – | – | – | – | – | – | – | – | 0.01 to 100 | Cc1c2n(c(OC[C@@H]3COCCO3)cc1=O)CCc1cc(N3CC(F)C3)ccc1-2 [Compound 91, 4-[[(2S)-1,4-dioxan-2-yl]methoxy]-9-(3-fluoroazetidin-1-yl)-1-methyl-6,7-dihydrobenzo[a]quinolizin-2-one]
14 | 100 to 500 | – | – | – | – | – | – | – | – | 0.01 to 100 | Cc1c2n(c(OC[C@@H]3COCCO3)cc1=O)CCc1cc(N3CCC3)ccc1-2 [Compound 93, 9-(azetidin-1-yl)-4-[[(2S)-1,4-dioxan-2-yl]methoxy]-1-methyl-6,7-dihydrobenzo[a]quinolizin-2-one]
15 | 100 to 500 | – | – | – | – | – | – | – | – | 0.01 to 100 | Cc1c2n(c(OC[C@@H]3COCCO3)cc1=O)CCc1cc(N3CC(n4cccn4)C3)ccc1-2 [Compound 95, 4-[[(2S)-1,4-dioxan-2-yl]methoxy]-1-methyl-9-(3-pyrazol-1-ylazetidin-1-yl)-6,7-dihydrobenzo[a]quinolizin-2-one]

Reference: US10568879B2 (GALAPAGOS NV, priority 2015, dated 2020)
